Reference: article PMC2682676 (Diabetes, 2009)

Columns and labels:
[1] = system: subjects with type 2 diabetes; format: in vivo, human
[2] = system: subjects with type 2 diabetes; assay: Gastric emptying by appearance of acetaminophen in plasma during GIP infusion; format: in vivo, human; conditions: 1 g acetaminophen with first bite; last 10 subjects
αTC1 cells = assay: Glucagon secretion from αTC1 cells; format: cell-based; conditions: αTC1 cells stimulated with GIP; secretion into the medium

In the case of `CC[C@H](C)[C@H](NC(=O)[C@H](CO)NC(=O)[C@H](Cc1ccc(O)cc1)NC(=O)[C@H](CC(=O)O)NC(=O)[C@H](CO)NC(=O)[C@@H](NC(=O)[C@H](Cc1ccccc1)NC(=O)[C@@H](NC(=O)CNC(=O)[C@H](CCC(=O)O)NC(=O)[C@H](C)NC(=O)[C@@H](N)Cc1ccc(O)cc1)[C@@H](C)O)[C@@H](C)CC)C(=O)N[C@@H](C)C(=O)N[C@@H](CCSC)C(=O)N[C@@H](CC(=O)O)C(=O)N[C@@H](CCCCN)C(=O)N[C@H](C(=O)N[C@@H](Cc1c[nH]cn1)C(=O)N[C@@H](CCC(N)=O)C(=O)N[C@@H](CCC(N)=O)C(=O)N[C@@H](CC(=O)O)C(=O)N[C@@H](Cc1ccccc1)C(=O)N[C@H](C(=O)N[C@@H](CC(N)=O)C(=O)N[C@@H](Cc1c[nH]c2ccccc12)C(=O)N[C@@H](CC(C)C)C(=O)N[C@@H](CC(C)C)C(=O)N[C@@H](C)C(=O)N[C@@H](CCC(N)=O)C(=O)N[C@@H](CCCCN)C(=O)NCC(=O)N[C@@H](CCCCN)C(=O)N[C@@H](CCCCN)C(=O)N[C@@H](CC(N)=O)C(=O)N[C@@H](CC(=O)O)C(=O)N[C@@H](Cc1c[nH]c2ccccc12)C(=O)N[C@@H](CCCCN)C(=O)N[C@@H](Cc1c[nH]cn1)C(=O)N[C@@H](CC(N)=O)C(=O)N[C@H](C(=O)N[C@H](C(=O)N[C@@H](CCC(N)=O)C(=O)O)[C@@H](C)O)[C@@H](C)CC)C(C)C)[C@@H](C)CC` [GIP, Glucose-dependent insulinotropic polypeptide], the “plasma glucagon, early postprandial period vs placebo” value ([1]; 20 ng/kg/min i.v., 0-60 min, positive AUC0-60 P < 0.01, n = 22) is reported as “statistically significant augmentation in glucagon secretion”, the “plasma glucose, early postprandial period vs placebo” value ([1]; 20 ng/kg/min i.v., t = 0-60 min, negative AUC0-60 P < 0.05, n = 22) is reported as “early transient decrease in plasma glucose” and the “plasma insulin, early postprandial period vs placebo” value ([1]; 20 ng/kg/min i.v., t = 0-60 min, positive AUC0-60 P < 0.01, n = 22) is reported as “statistically significant increase in plasma insulin”. The “resistin levels vs placebo” value ([1]; during 3 h of infusion, data not shown) was “no effect on resistin levels”, the “gastric emptying (plasma acetaminophen levels, AUCALL t = 0-180 min) vs placebo” value [2] was “did not affect gastric emptying” and the glucagon secretion (αTC1 cells) was “glucagon secretion in a concentration-dependent manner”.
